Consider five compounds from US6814319B2, “Laboratory scale milling process” (Pharmacia & Upjohn Company, priority 2000, dated 2004).

What all share (format): physicochemical
Data set [1] is described as follows: D50 particle size of milled drug, X-ray diffraction. The following applies: size detection by X-ray diffraction; after magnetic stir-bar milling, parameters of Table 2. The source says:
(§1) Valdecoxib, linezolid, phenytoin, griseofulvin and carbamazepine were milled according to the general procedure described for celecoxib in Example 1.

The nature of data set [2]: D50 particle size of milled drug, turbidimetry. The conditions noted are these: size detection by turbidimetry; after magnetic stir-bar milling, parameters of Table 2.
Description: as §1

Data set [3] in a line: D50 particle size of milled drug, optical microscopy. The following applies: size detection by optical microscopy; after magnetic stir-bar milling, parameters of Table 2.
Description: as §1

On to `NC(=O)N1c2ccccc2C=Cc2ccccc21` [Carbamazepine], for which the “D50 (nm)” value in data set [1] is given as 2600^3 nm; in data set [2], 2500^1 nm.

For `COC1=CC(=O)C[C@@H](C)[C@]12Oc1c(Cl)c(OC)cc(OC)c1C2=O` [Griseofulvin], the “D50 (nm)” value is given as 160^3 nm in data set [1] and 250^1 nm in data set [2].

As for `CC(=O)NC[C@H]1CN(c2ccc(N3CCOCC3)c(F)c2)C(=O)O1` [Linezolid], the “D50 (nm)” value in data set [2] is reported as 1900^1 nm; in data set [3], 1000^2 nm.

Consider `O=C1NC(=O)C(c2ccccc2)(c2ccccc2)N1` [Phenytoin], for which the “D50 (nm)” value in data set [1] is given as 130^3 nm; in data set [2], 200^1 nm.

`Cc1onc(-c2ccccc2)c1-c1ccc(S(N)(=O)=O)cc1` [Valdecoxib]: the “D50 (nm)” value in data set [2] was 460^1 nm.
